Patent US8119689B2, “Adjuvants on the basis of bisacyloxypropylcystene conjugates and derivatives and their uses in pharmaceutical compositions” (Helmholtz-Zentrum Fuer Infektionsforschung GmbH, priority 2005, dated 2012)
“Also recorded” adds a separate entry of the source.

Tests used:
[1] = test system: β-gal-specific antibodies; assay: Serum β-gal-specific IgG titers after i.n. or s.c. vaccination (ELISA); type: in vivo, BALB/c mice
Description: FIG. 5: FIG. 5 illustrates the humoral responses following vaccination using BPPcysGlyc4armPEG and BPPcysAda, respectively, as adjuvant. Mice were immunised by intranasal (i.n.) and subcutaneous, transcutaneous (topical vaccination) (s.c.) routes with either β-galactosidase (30 μg) alone or β-galactosidase mixed with BPPcysGlyc4armPEG or BPPcysAda on days 0, 14 and 28. At day 38 post primary immunisation, serum samples were collected and the titre of 1-galactosidase-specific antibodies was determined by ELISA. As a control, a group in which animals were immunized with β-galactosidase alone was used (A). In (B) and (C) the kinetic of antigen specific serum IgG is shown for intranasal vaccination (B) and parenteral vaccination (C), respectively. […] Differences were statistically significant at p<0.05 (*) with respect to mice receiving antigen alone. One representative out of four independent experiments is shown. SEM is indicated by vertical lines.
Experimental protocol: six-eight weeks-old female BALB/c (H-2d) mice were purchased from Harlan Winkelmann GmbH (Borchen, Germany) and treated in accordance with local and European Community guidelines. […] Endpoint titers were expressed as the reciprocal log2 of the last dilution, which gave an optical density at 405 nm of 0.1 units above the values of the negative controls after 15 to 30 min of incubation.

spleen cells [2] = assay: In vitro T cell-mediated proliferative response of spleen cells restimulated with the adjuvant ([3H]thymidine); type: cell-based, Balb/c mice; details: negative control 4armPEG or Ada
Description: FIG. 2: FIG. 2 illustrates the cellular responses of restimulated spleen cells using different concentrations of BPPcysGlyc4armPEG or BPPcysAda as adjuvant. […] Results are expressed as counts per minute (A) and (C) and stimulation indexes (cpm samples/cpm in control non stimulated cells) (B).
Experimental protocol: Spleens were removed and pooled for analysis of cellular immune responses. Cells were grown in RPMI 1640 supplemented with 10% fetal calf serum, 100 U/ml of penicillin, 50 μg/ml of streptomycin, 5×10^−5 M 2-mercaptoethanol and 1 mM L-glutamine (GIBCO BRL, Karlsruhe, Germany) and maintained at 37° C. in a humidified 5% CO2 atmosphere. Lymph node and spleen cell suspensions were adjusted to 5×10^6 cells/ml in complete medium, cells were seeded with 100 μl per well in a flat-bottomed 96-well microtiter plate (Nunc) and plates were incubated for 4 days in the presence of different concentrations of soluble β-gal. Each concentration was tested in quadruplicates. […] Cells were then harvested on paper filters (Filtermat A; Wallac, Freiburg, Germany) by using a cell harvester (Inotech, Wohlen, Switzerland), and the amount of incorporated [^3H]thymidine into the DNA of proliferating cells was determined by a […] (Wallac 1450, Micro-Trilux). The results are expressed as the arithmetic mean of [^3H]thymidine uptake in cpm. […]

spleen cells [3] = assay: ELISPOT of cytokine producing spleen cells from vaccinated mice; type: in vivo
Description: FIG. 9: FIG. 9 provides the cytokine profile (IFNγ, IL-4 and IL-2) secreted by in vitro re-stimulated spleen cells from mice vaccinated with either BPPcysGlyc4armPEG or BPPcysMPEG (A), or BPPcysAda (B) and the model antigen β-gal (30 μg) alone. Results are expressed as spot forming units with subtracted background in the immunized groups with respect to the non-immunized control mice. Differences were statistically significant at p<0.05 (*) with respect to mice receiving antigen alone.
Experimental protocol: Spleens were removed and pooled for analysis of cellular immune responses. Cells were grown in RPMI 1640 supplemented with 10% fetal calf serum, 100 U/ml of penicillin, 50 μg/ml of streptomycin, 5×10^−5 M 2-mercaptoethanol and 1 mM L-glutamine (GIBCO BRL, Karlsruhe, Germany) and maintained at 37° C. in a humidified 5% CO2 atmosphere. […] Coat ELISPOT plate with 100 μl/well of purified capture antibody at 10 μg/ml in coating buffer, incubate at 4° C. overnight. After 6× washing steps, the plates were blocked with 200 μl/well of complete RPMI-1640 at room temperature for 1 hour. The activated cells were seeded at 100 μl per well and incubate at 37° C., in a 5% CO2 humidified incubator for 24 hours or 48 hours. After 5× washing steps with washing buffer and 1× step with distilled water, 100 μl/well of the biotinylated detection antibody with a concentration of 1 μg/ml in Assay Diluent was added and incubated at room temperature for 2 hrs. After further washing steps 100 μl/well of the AV-HRP at 1/1000 dilution in Assay Diluent was added and incubated at room temperature for 30 minutes. After further washing steps 100 μl/well of AEC Substrate Solution was added and developed at room temperature for 20-60 minutes until visible spots appeared. After washing steps with (3×) with 200 μl/well distilled water, the plates were air-dried and analyzed by counting the spots by an ELISPOT reader. Each concentration was tested in triplicates.

CCCCCCCCCCCCCCCC(=O)OCC(CSC[C@H](N)C(=O)N[C@H]1[C@@H](O)[C@H](n2cnc3c(N)ncnc32)O[C@@H]1CO)OC(=O)CCCCCCCCCCCCCCC (single isomer, unassigned) [BPPcysAda, S-[2,3-bis(palmitoyloxy)-(2S or 2R)-propyl]-L-cysteinylcarboxy-3′Amino-3′-deoxyadenosine]
β-gal-specific serum IgG titers, i.n. administration ([1]; i.n. with β-gal, vs antigen alone): enhanced expression; also recorded: very high titers; also recorded: significantly higher levels
β-gal-specific serum IgG titers, s.c. route ([1]; s.c. co-injection with β-gal, vs β-gal alone): enhanced expression; also recorded: increased
proliferative response of restimulated spleen cells (stimulation index) (spleen cells [2]): efficient proliferative response
splenic IL-2 producing cells (spleen cells [3]; i.n. and s.c. route): enhanced expression
splenic IL-4 producing cells (spleen cells [3]; i.n. and s.c. route): enhanced expression
number of splenic IFNγ producing cells (spleen cells [3]; restimulation with MHC class I-restricted β-Galactosidase peptide): increment
